For orientation: IC50 means the midpoint of a concentration-inhibition curve.

Among the data in US20230131025A1, “QUINOLYL PHOSPHINE OXIDE COMPOUND, AND COMPOSITION AND APPLICATION THEREOF” (Betta Pharmaceuticals Co., Ltd., priority 2020, published 2023) are IC50 and GI50 values, retold here.

The target in one test is EGFR Δ19del/T790M/C797S (Homo sapiens, UniProt P00533, T790M/C797S, form not given). The test can be described thus: Kinase inhibition assay (mobility shift). Format: biochemical. On the procedure:
(§1) Experiment 1 Kinase Inhibition Assay Mobility shift assays were performed to determine inhibitory activity of compounds against EGFR^Δ19del/T790M/C797S, EGFR WT and IGF1R kinases. The enzymatic reaction scheme is as follows:
(§2) 1. Preparing 1*Kinase Buffer as follows:
(§3) 2. Preparing compound concentration gradient: the initial concentration of the compound tested in the assay was 3,000 nM or 100 nM, which is then diluted to be 100-fold final concentration in 100% DMSO in a 384-source plate. Compounds in 10 concentrations were diluted in a 3-fold gradient with Precision. 250 nL of compound in 100-fold final concentration was transferred to OptiPlate-384F plate by using a dispenser named Echo 550.
(§4) 3. Preparing kinase solution at 2.5-fold the final concentration with 1×kinase buffer.
(§5) 4. Adding 10 μL of kinase solution at 2.5-fold the final concentration to compound wells and positive control wells respectively; and adding 10 μL of 1×kinase buffer to negative control wells.
(§6) 5. Centrifuging the wells at 1,000 rpm for 30 seconds, mixing the reaction plate well by shaking and incubating it at room temperature for 10 minutes.
(§7) 6. Preparing a mixed solution of ATP and kinase substrate at 5-fold/3-fold the final concentration with 1×Kinase buffer, respectively.
(§8) 7. Initiating the reaction by adding 15 μL of the mixed solution of ATP and kinase substrate at 5-fold/3-fold the final concentration.
(§9) 8. Centrifuging the 384-well plate at 1,000 rpm for 30 seconds, mixing the reaction plate well by shaking and incubating it at room temperature for a corresponding time.
(§10) 9. Adding 30 μL of assay stop solution to stop the kinase reaction, and centrifuging the plate at 1,000 rpm for 30 seconds and mixing it well by shaking.
(§11) 10. Reading the conversion rate with Caliper EZ Reader.
(§12) [formula] • wherein, “Conversion % sample” is the conversion rate reading of the sample;
(§13) “Conversion %_min” is the mean value of the negative control wells, representing the conversion rate readings of the well without enzymatic activity; “Conversion %_max” is the mean value of the positive control wells, representing the conversion rate readings of the wells without compound inhibition. • Dose-response curve is plotted with the logarithmic concentration on the X-axis and percent inhibition on the Y-axis. The fitting of the dose-response curve is made with the module “log(inhibitor) vs. response—Variable slope” of the analysis software GraphPad Prism 5, so that the IC50 value of each compound on enzymatic activity is obtained. • The calculation formula is: Y=Bottom+(Top−Bottom)/(1+10^((Log IC50−X)*HillSlope)).

For the next test, the target named is IGF1R (Homo sapiens, UniProt P08069). The test can be described thus: Kinase inhibition assay (mobility shift). Format: biochemical. How it is done: as §1, §2, §3, §4, §5, §6, §7, §8, §9, §10, §11, §12, §13
Chain of IGF1R (P08069 31-1367, species assumed): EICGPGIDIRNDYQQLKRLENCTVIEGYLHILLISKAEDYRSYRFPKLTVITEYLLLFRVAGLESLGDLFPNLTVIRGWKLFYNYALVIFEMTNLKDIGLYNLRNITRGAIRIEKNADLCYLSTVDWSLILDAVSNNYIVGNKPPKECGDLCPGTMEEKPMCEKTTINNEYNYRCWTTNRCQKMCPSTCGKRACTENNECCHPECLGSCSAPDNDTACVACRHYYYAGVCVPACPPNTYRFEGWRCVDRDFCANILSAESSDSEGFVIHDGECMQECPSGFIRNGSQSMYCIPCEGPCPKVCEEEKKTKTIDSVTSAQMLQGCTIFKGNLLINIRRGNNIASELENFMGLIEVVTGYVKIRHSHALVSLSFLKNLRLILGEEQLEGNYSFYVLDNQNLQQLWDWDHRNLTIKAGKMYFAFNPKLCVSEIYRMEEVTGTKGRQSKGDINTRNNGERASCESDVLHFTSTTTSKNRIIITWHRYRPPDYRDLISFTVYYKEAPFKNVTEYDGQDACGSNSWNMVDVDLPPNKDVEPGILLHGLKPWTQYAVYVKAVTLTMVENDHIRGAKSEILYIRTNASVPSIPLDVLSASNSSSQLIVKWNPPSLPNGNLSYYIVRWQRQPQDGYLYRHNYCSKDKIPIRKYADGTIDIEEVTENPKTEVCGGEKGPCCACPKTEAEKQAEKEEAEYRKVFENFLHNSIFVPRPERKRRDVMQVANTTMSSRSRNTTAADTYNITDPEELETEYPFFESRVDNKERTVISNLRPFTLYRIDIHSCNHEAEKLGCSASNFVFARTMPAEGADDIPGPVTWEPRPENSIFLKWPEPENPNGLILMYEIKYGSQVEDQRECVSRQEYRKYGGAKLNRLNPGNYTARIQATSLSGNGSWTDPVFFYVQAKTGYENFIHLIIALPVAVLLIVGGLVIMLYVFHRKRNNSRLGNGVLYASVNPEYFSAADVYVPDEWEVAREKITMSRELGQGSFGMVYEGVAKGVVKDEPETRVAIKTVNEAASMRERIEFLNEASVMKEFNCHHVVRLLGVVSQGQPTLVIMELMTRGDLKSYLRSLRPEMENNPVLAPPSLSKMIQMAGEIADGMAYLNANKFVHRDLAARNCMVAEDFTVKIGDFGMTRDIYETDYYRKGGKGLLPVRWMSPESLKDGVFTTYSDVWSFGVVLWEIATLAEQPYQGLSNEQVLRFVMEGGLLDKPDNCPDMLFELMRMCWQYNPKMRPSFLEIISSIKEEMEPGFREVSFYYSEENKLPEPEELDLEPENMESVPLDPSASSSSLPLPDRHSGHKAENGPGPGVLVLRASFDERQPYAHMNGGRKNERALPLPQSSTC
The target of another test is EGFR WT (Homo sapiens, UniProt P00533). The test can be described thus: Kinase inhibition assay (mobility shift). Format: biochemical. How it is done:
as §1, §2, §3, §4, §5, §6, §7, §8, §9, §10, §11, §12, §13

Test [1] relates to human epidermal cancer cells A431 carrying EGFR WT. As to the kind of experiment: Cell proliferation experiment (CellTiter Glo, 72 hours). Format: cell-based. Conditions: Homo sapiens, A-431. On the procedure: (§14) Experiment 2 Cell Proliferation Experiment
Adherent cells: human epidermal cancer cells A431 carrying EGFR WT.
(§15) RPMI 1640 with 10% FBS and 1% Penicillin-Streptomycin, or DMEM with 10% FBS and 1% Penicillin-Streptomycin.
(§16) a) Diluting compounds being tested (20 mM stock solutions), as an initial concentration, to 10 mM with 100% DMSO, followed by diluting compounds serially in a 3-fold gradient such that each compound is diluted into 12 concentrations (Cat #P-05525, Labcyte).
(§17) b) Diluting the above compound solutions for 100-fold with culture medium to prepare 10-fold working solution.
(§18) b) Seeding cells into 96-well cell culture plate at a density of 2000 or 3000 cells/well, with 135 μL/well.
(§19) a) Adding the compound prepared in step 2 to the cell plate at 15 μL per well, resulting in a final maximum concentration of 10000 nM or 1111 nM. The compounds is diluted serially in a 3-fold gradient such that each compound is diluted into 9 concentrations, wherein the final concentration of DMSO is 0.1%. Blank control wells are added with medium (0.1% DMSO).
(§20) b) Re-incubating the cells in an incubator for 72 hours. 5. Detection
(§21) a) Adding 50 μL of CTG reagent (CellTiter Glo kit, promega, Cat #G7573) to the 96-well cell culture plate.
(§22) b) Shaking the plate for 2 minutes and reacting at room temperature for 10 minutes.
(§23) c) Reading the luminescence signal value (Lum) using PerkinElmer reader.
(§24) The cell survival inhibition rate of each well was calculated. The data was analyzed by GraphPad Prism 6.0 software. The dose-response curve was obtained by fitting the data with a nonlinear regression equation. The IC50 of each compound was calculated as follows:
(§25) Cell survival inhibition rate (%)=(1−(Lumcompound tested−Lummedium control)/(Lumcell control−Lummedium control))×100%
(§26) Y=Min+(Max−Min)/(1+10^((Log IC50−X)*Slope));
(§27) X: logarithm of compound concentration. Y: cell survival inhibition rate.
In general terms: ATP-based viability assays read luminescence as a measure of living cells.

The next test has as its target Ba/F3 EGFR WT (Homo sapiens, UniProt P00533). The description is as above. It is filed as cell-based. Conditions: read-out: BaF3 EGFR WT IC50. On the procedure:
as §14
(§28) Suspension cells: Ba/F3 cells with stable overexpression of Δ19del/T790M/C797S mutant gene, named Ba/F3-Δ19del/T790M/C797S; Ba/F3 cells with overexpression of EGFR WT, named Ba/F3 EGFR WT.
as §15, §16, §17, §18, §19, §20, §21, §22, §23, §24, §25, §26, §27

Another test deals with Ba/F3-Δ19del/T790M/C797S (Homo sapiens, UniProt P00533, T790M/C797S, cells depend on it, form not given). The description is as above. Format: cell-based. The conditions noted are these: read-out: Ba/F3/EGFR Δ19del/T790M/C797S IC50. How it is done: as §14, §28, §15, §16, §17, §18, §19, §20, §21, §22, §23, §24, §25, §26, §27
Chain of Ba/F3-Δ19del/T790M/C797S (P00533 with tags, fused parts or gaps DEL746-750/T790M/C797S, form open): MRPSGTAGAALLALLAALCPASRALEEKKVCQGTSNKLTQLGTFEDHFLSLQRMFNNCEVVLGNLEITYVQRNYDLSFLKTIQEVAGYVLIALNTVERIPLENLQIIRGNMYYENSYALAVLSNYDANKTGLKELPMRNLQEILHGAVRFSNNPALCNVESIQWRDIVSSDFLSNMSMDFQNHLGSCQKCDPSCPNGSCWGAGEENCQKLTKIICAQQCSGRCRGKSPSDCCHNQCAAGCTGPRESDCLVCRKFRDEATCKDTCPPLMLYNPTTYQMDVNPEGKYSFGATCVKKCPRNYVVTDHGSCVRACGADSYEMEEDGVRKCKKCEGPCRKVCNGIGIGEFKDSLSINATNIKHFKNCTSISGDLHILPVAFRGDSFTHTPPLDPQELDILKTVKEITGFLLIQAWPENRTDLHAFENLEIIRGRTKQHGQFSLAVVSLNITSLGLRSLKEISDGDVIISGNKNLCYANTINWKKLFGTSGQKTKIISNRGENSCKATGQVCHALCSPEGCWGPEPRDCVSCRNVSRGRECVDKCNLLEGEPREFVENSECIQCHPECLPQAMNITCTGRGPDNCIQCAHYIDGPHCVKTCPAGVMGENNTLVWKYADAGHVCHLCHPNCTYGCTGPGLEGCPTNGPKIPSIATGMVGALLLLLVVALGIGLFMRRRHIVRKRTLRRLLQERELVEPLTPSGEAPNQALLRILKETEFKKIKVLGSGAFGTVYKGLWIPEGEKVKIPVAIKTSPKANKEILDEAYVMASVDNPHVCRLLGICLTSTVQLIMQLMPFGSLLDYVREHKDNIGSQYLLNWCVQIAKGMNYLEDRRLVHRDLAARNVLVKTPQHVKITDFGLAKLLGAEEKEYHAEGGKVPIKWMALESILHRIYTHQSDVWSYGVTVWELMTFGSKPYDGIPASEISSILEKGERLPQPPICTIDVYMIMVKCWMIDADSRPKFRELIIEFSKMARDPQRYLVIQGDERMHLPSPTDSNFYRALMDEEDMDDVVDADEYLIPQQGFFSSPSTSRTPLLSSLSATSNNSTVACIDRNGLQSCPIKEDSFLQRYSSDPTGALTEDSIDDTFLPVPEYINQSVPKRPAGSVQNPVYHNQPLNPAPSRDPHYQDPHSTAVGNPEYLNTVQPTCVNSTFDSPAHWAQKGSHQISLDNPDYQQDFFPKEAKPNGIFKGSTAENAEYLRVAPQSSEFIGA

Chain of EGFR Δ19del/T790M/C797S (P00533 with tags, fused parts or gaps DEL746-750/T790M/C797S, form open): as above
Chain of Ba/F3 EGFR WT (P00533 whole entry, change not shown): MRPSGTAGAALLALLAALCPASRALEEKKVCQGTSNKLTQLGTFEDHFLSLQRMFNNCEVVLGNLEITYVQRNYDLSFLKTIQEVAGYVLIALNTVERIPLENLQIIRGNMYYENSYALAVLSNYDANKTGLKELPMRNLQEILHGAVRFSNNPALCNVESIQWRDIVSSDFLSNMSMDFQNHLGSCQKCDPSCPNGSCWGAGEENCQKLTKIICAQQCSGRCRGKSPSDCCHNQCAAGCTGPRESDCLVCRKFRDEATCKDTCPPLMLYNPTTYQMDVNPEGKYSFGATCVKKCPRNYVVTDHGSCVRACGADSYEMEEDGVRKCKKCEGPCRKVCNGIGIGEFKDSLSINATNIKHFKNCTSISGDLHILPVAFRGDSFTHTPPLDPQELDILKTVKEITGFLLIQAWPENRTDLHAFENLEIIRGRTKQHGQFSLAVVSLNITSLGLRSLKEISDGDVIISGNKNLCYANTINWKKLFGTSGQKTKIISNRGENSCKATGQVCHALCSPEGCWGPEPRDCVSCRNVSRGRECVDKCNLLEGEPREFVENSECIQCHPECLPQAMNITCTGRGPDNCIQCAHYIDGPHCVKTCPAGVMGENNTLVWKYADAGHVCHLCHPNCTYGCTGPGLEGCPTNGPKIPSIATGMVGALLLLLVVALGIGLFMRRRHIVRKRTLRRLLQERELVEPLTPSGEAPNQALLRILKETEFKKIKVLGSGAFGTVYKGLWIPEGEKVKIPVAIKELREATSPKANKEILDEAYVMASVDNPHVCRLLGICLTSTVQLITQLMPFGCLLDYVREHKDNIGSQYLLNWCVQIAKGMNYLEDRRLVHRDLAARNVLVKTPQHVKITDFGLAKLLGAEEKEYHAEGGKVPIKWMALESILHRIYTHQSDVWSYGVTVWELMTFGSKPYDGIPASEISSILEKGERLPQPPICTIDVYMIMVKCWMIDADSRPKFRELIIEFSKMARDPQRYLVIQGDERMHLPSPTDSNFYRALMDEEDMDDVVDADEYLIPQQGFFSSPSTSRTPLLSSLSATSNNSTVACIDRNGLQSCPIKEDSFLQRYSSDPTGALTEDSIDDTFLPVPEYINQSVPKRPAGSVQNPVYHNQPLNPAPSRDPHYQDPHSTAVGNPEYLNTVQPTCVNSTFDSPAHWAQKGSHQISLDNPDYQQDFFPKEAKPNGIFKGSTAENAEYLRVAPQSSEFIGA

As for `COc1cc(-c2ccc(N3CCN(C)CC3)cc2)c(C)cc1Nc1ncc(Br)c(Nc2ccc3nc(C4CC4)ccc3c2P(C)(C)=O)n1` [Compound J-040, (6-((5-Bromo-2-((5-methoxy-2-methyl-4′-(4-methylpiperazin-1-yl)-[1,1′-biphenyl]-4-yl)amino)pyrimidin-4-yl)amino)-2-cyclopropylquinolin-5-yl)dimethylphosphine oxide], the results for the concentration for half-maximal inhibition (IC50) at EGFR Δ19del/T790M/C797S, at IGF1R and on EGFR WT were 6 nM, 1160 nM and 550 nM, respectively.
Take `COc1cc(Nc2ncc(Br)c(Nc3ccc4nc(C5CC5)ccc4c3P(C)(C)=O)n2)c(C2CC2)cc1N1CCOCC1` [Compound J-004, (6-((5-Bromo-2-((2-cyclopropyl-5-methoxy-4-morpholinylphenyl)amino)pyrimidin-4-yl)amino)-2-cyclopropylquinoline-5-yl)dimethylphosphine oxide]: the half-inhibitory concentration (IC50) on EGFR Δ19del/T790M/C797S is 0.7 nM; at IGF1R, 380 nM; at EGFR WT, 283 nM.
Consider `COc1cc(N2CCC(N3CCN(C)CC3)CC2)c(F)cc1Nc1ncc(Br)c(Nc2ccc3nc(C4CC4)ccc3c2P(C)(C)=O)n1` [Compound J-019, (6-((5-Bromo-2-((5-fluoro-2-methoxy-4-(4-(4-methylpiperazin-1-yl)piperidin-1-yl)phenyl)amino)pyrimidin-4-yl)amino)-2-cyclopropylquinolin-5-yl)dimethylphosphine oxide], for which the IC50 was determined as 0.33 nM on EGFR Δ19del/T790M/C797S, 222 nM at IGF1R and 16 nM at EGFR WT.
`CCc1cc(Nc2ncc(Br)c(Nc3ccc4nc(-c5cnn(C)c5)ccc4c3P(C)(C)=O)n2)c(OC)cc1N1CCC(N2CCN(C)CC2)CC1` [Compound J-017, (6-((5-Bromo-2-((5-ethyl-2-methoxy-4-(4-(4-methylpiperazin-1-yl)piperidin-1-yl)phenyl)amino)pyrimidin-4-yl)amino)-2(1-methyl-1H-pyrazol-4-yl)quinolin-5-yl)dimethylphosphine oxide]: the results for the 50% inhibitory concentration (IC50) on EGFR Δ19del/T790M/C797S, on IGF1R and on EGFR WT were 0.3 nM, 246 nM and 18.4 nM, respectively.
Regarding `COc1cc(N2CCN(C3CCCC3)CC2)c(C)cc1Nc1ncc(Br)c(Nc2ccc3nc(C4CC4)ccc3c2P(C)(C)=O)n1` [Compound J-037, (6-((5-Bromo-2-((4-(4-cyclopentylpiperazin-1-yl)-2-methoxy-5-methylphenyl)amino)pyrimidin-4-yl)amino)-2-cyclopropylquinolin-5-yl)dimethylphosphine oxide], the half-maximal inhibitory concentration (IC50) came to 210 nM on IGF1R and 138 nM at EGFR WT.
With `COc1cc(N2CCN(c3cnccn3)CC2)c(-c2cnn(C)c2)cc1Nc1ncc(Br)c(Nc2ccc3nc(C4CC4)ccc3c2P(C)(C)=O)n1` [Compound J-058, (6-((5-Bromo-2-((2-methoxy-5-(1-methyl-1H-pyrazol-4-yl)-4-(4-(pyrazin-2-yl)piperazin-1-yl)phenyl)amino)pyrimidin-4-yl)amino)-2-cyclopropylquinolin-5-yl)dimethylphosphine oxide], the IC50 in test [1] is 649 nM. The results for the GI50 on Ba/F3 EGFR WT and on Ba/F3-Δ19del/T790M/C797S were 117 nM and 5.8 nM, respectively.
`COc1cc(N2CCN(c3cccnc3)CC2)c(-c2cnn(C)c2)cc1Nc1ncc(Br)c(Nc2ccc3nc(C4CC4)ccc3c2P(C)(C)=O)n1` [Compound J-056, (6-((5-Bromo-2-((2-methoxy-5-(1-methyl-1H-pyrazol-4-yl)-4-(4-(pyridin-3-yl)piperazin-1-yl)phenyl)amino)pyrimidin-4-yl)amino)-2-cyclopropylquinolin-5-yl)dimethylphosphine oxide] gave an IC50 in test [1] of 1100 nM. Besides, the GI50 was 38 nM on Ba/F3 EGFR WT and 0.8 nM at Ba/F3-Δ19del/T790M/C797S.
`COc1cc(N2CCC(N3CCOCC3)CC2)c(-c2cnn(C)c2)cc1Nc1ncc(Br)c(Nc2ccc3nc(C4CC4)ccc3c2P(C)(C)=O)n1` [Compound J-059, (6-((5-Bromo-2-((2-methoxy-5-(1-methyl-1H-pyrazol-4-yl)-4-(4-morpholinopiperidine-1-yl)phenyl)amino)pyrimidin-4-yl)amino)-2-cyclopropylquinolin-5-yl)dimethylphosphine oxide] yielded an IC50 in test [1] of 264 nM. Moreover, the GI50 at Ba/F3 EGFR WT was 10.6 nM; on Ba/F3-Δ19del/T790M/C797S, 0.4 nM.
`COc1cc(N2CCN(c3cnc(N(C)C)cn3)CC2)c(-c2cnn(C)c2)cc1Nc1ncc(Br)c(Nc2ccc3nc(C4CC4)ccc3c2P(C)(C)=O)n1` [Compound J-045, (6-((5-Bromo-2-((4-(4-(5-(dimethylamino)pyrazin-2-yl)piperazin-1-yl)-2-methoxy-5-(1-methyl-1H-pyrazol-4-yl)phenyl)amino)pyrimidin-4-yl)amino)-2-cyclopropylquinolin-5-yl)dimethylphosphine oxide] registered an IC50 in test [1] of 710 nM. The GI50 amounted to 130 nM at Ba/F3 EGFR WT and 13.5 nM on Ba/F3-Δ19del/T790M/C797S.
The compound `COc1ncc(N2CCN(c3cc(OC)c(Nc4ncc(Br)c(Nc5ccc6nc(C7CC7)ccc6c5P(C)(C)=O)n4)cc3-c3cnn(C)c3)CC2)cn1` [Compound J-044, (6-((5-Bromo-2-((2-methoxy-4-(4-(2-methoxypyrimidin-5-yl)piperazin-1-yl)-5-(1-methyl-1H-pyrazol-4-yl)phenyl)amino)pyrimidin-4-yl)amino)-2-cyclopropylquinolin-5-yl)dimethylphosphine oxide] displayed an IC50 in test [1] of 432 nM. Further, the GI50 was found to be 25.2 nM on Ba/F3 EGFR WT and 1 nM on Ba/F3-Δ19del/T790M/C797S.
`COc1cc(N2CCC(N3CCN(C)CC3)CC2)c(-c2cnn(C(F)F)c2)cc1Nc1ncc(Br)c(Nc2ccc3nc(C4CC4)ccc3c2P(C)(C)=O)n1` [Compound J-067, (6-((5-bromo-2-((5-(1-(difluoromethyl)-1H-pyrazol-4-yl)-2-methoxy-4-(4-(4-methylpiperazin-1-yl)piperidin-1-yl)phenyl)amino)pyrimidin-4-yl)amino)-2-cyclopropylquinolin-5-yl)dimethylphosphine oxide] had an IC50 in test [1] of 632 nM. The values for the GI50 on Ba/F3 EGFR WT and at Ba/F3-Δ19del/T790M/C797S were 37.3 nM and 2.4 nM, respectively.
On to `COc1cc(NCC2CCN(C)CC2)c(-c2cnn(C)c2)cc1Nc1ncc(Br)c(Nc2ccc3nc(C4CC4)ccc3c2P(C)(C)=O)n1` [Compound J-052], for which the IC50 in test [1] amounted to 279 nM. Besides, the figures for the GI50 on Ba/F3 EGFR WT and on Ba/F3-Δ19del/T790M/C797S were 123 nM and 2.6 nM, respectively.
In turn, `COc1cc(N2CCN(c3cc(OC)c(Nc4ncc(Br)c(Nc5ccc6nc(C7CC7)ccc6c5P(C)(C)=O)n4)cc3-c3cnn(C)c3)CC2)ccn1` [Compound J-043] came in with a 50% inhibitory concentration (IC50) in test [1] of 896 nM. The GI50 worked out at 67.6 nM on Ba/F3 EGFR WT and 10.9 nM at Ba/F3-Δ19del/T790M/C797S.
